Assay results from ChEMBL document CHEMBL1201862, “PubChem BioAssay data set” (2004).
Active and inactive are the calls of the source.

What was measured:
[1] = biological target: Delta-type opioid receptor (Homo sapiens, UniProt P41143); test: HTS Image-Based Screen for Antagonists of the DOR Receptor. [Related pubchem assays (depositor defined):AID1777, AID1785, AID1786, AID2133]; format: functional;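 further: U2OS cells expressing DOR stimulated with 100 nM SNC80 agonist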
Mu-type opioid receptor = Mu-type opioid receptor (Homo sapiens, UniProt P35372); test: HTS Image-Based Screen for Agonists of the MOR Receptor. [Related pubchem assays (depositor defined):AID1777, AID1785, AID1786, AID2133]; format: functional;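 further: imaging of beta-arrestin GFP recruitment into spots after receptor activation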
Beta-galactosidase = Beta-galactosidase (Escherichia coli, UniProt Q8VNN2); format: functional
[2] = biological target: T1, Replicative DNA helicase DnaB (Mycobacterium tuberculosis, UniProt P9WMR3); test: DnaB intein splicing inhibitors, dose response, biochemical, cell-free fluorescence (AID 449749); format: functional
T1 sequence (P9WMR3 whole entry): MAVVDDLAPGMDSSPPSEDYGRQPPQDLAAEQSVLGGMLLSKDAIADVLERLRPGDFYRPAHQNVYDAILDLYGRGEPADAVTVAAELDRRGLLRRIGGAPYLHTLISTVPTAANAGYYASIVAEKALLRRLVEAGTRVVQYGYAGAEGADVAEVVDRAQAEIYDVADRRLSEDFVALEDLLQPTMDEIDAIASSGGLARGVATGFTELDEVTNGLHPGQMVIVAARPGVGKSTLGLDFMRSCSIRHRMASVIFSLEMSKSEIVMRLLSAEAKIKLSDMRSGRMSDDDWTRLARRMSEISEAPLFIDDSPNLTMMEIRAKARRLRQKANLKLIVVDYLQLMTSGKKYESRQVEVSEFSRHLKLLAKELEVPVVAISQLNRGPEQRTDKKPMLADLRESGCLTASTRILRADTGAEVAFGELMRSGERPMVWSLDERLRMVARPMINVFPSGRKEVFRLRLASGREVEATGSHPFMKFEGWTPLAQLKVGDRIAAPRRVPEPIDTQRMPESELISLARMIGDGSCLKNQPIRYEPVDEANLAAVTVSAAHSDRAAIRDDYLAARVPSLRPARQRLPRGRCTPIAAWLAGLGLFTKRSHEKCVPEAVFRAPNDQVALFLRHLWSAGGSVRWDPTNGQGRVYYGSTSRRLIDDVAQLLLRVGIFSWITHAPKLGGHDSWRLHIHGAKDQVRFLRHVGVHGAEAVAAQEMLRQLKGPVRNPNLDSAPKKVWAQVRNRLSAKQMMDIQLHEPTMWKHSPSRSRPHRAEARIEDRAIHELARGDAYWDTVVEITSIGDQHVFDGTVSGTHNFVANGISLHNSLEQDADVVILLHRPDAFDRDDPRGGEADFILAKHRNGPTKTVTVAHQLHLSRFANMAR

Caspase-7 = Caspase-7 (Homo sapiens, UniProt P55210); test: human caspase-7 inhibitors, dose response, selectivity assay for caspase-6 inhibitor project, biochemical, DEVD-R110 fluorescence, cherry-pick (AID 743295)
[3] = biological target: T2, Polyadenylate-binding protein 1 (Homo sapiens, UniProt P11940); test: PABP1 MLLE–PAM2 binding inhibitor potency, dose response, biochemical, fluorescence polarization, FITC-PAM2 peptide (AID 602259); format: functional; conditions: read-out: IC50_Mean
[4] = biological target: Small ubiquitin-related modifier 1 (Homo sapiens, UniProt P63165); test: inhibitors of SUMO1 partner interactions, dose response, biochemical, FRET (AID 624383); format: functional; conditions: read-out: IC50_Mean
[5] = biological target: Tyrosine-protein phosphatase non-receptor type 5 (Homo sapiens, UniProt P54829); test: STEP phosphatase inhibitors, confirmation, biochemical, fluorescence intensity, uHTS hits (AID 602372); format: functional; conditions: read-out: IC50_Mean
[6] = biological target: T2, Polyadenylate-binding protein 1; test: PABP1 MLLE–PAM2 interaction inhibitors, dose response, miRNA deadenylation inhibitor project, biochemical, fluorescence polarization, Cy5-PAM2 peptide, secondary (AID 602260); format: functional; conditions: read-out: IC50_Mean
[7] = biological target: T3, Histone-lysine N-methyltransferase NSD2 (Homo sapiens, UniProt O96028); format: biochemical
T3 sequence (O96028 whole entry): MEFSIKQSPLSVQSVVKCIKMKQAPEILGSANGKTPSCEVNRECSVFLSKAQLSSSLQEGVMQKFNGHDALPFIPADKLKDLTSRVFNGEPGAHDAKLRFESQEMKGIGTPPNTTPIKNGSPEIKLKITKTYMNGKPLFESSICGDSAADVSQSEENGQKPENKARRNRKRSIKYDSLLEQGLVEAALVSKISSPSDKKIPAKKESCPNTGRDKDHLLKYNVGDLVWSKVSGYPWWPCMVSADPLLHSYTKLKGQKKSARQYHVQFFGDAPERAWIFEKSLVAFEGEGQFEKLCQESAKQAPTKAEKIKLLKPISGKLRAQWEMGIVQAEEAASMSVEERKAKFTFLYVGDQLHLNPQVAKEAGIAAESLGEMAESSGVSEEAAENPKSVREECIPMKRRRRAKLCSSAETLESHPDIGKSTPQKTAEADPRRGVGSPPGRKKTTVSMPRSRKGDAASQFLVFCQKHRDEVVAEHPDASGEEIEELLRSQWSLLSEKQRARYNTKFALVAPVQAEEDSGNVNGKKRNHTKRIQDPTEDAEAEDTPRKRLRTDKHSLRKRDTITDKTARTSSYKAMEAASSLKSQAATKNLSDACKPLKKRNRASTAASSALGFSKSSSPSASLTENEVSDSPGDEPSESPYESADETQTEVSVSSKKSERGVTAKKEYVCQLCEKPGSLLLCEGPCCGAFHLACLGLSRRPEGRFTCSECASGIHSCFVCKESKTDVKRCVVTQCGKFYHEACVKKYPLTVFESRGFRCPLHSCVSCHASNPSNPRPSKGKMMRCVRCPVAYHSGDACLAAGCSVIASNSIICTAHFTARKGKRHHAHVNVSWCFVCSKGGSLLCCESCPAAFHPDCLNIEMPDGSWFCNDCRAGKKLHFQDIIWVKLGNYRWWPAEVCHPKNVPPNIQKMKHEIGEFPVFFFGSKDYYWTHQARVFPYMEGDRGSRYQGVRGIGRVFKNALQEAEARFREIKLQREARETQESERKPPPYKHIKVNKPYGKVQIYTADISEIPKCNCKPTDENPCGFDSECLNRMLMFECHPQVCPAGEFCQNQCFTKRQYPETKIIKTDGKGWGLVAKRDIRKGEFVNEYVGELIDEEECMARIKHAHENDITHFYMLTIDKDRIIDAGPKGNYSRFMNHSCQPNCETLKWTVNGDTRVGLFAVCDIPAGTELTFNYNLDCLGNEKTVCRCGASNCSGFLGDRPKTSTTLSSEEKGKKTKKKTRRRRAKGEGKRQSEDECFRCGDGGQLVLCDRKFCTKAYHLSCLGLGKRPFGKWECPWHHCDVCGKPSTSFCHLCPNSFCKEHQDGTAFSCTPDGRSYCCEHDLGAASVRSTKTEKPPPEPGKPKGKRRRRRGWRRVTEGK

T2 sequence (P11940 whole entry): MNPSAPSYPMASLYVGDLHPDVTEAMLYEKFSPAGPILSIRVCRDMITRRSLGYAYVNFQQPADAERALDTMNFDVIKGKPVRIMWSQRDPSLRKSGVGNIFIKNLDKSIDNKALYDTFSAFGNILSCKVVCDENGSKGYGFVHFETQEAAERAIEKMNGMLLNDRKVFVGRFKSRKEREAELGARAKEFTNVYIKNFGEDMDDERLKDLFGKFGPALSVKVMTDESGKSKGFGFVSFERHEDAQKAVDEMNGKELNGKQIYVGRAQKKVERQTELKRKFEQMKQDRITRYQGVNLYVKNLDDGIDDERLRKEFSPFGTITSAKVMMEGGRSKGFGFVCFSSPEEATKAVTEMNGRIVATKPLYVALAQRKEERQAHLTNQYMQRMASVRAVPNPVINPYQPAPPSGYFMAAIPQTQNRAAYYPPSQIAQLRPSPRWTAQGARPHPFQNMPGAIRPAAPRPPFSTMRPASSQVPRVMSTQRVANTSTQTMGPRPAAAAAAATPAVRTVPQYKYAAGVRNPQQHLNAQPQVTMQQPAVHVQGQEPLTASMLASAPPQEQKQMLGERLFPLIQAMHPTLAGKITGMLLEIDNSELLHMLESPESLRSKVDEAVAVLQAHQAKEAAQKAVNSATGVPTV
Sequence of Delta-type opioid receptor (P41143 whole entry): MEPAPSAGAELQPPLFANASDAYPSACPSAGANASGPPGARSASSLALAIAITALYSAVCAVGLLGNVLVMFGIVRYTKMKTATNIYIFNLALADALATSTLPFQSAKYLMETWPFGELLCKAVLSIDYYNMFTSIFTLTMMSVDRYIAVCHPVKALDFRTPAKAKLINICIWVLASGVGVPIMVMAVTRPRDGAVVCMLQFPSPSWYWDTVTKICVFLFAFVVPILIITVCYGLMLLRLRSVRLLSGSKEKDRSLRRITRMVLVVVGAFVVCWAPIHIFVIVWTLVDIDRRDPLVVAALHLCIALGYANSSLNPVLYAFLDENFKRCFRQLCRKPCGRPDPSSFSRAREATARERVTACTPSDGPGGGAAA
Sequence of Small ubiquitin-related modifier 1 (P63165 whole entry): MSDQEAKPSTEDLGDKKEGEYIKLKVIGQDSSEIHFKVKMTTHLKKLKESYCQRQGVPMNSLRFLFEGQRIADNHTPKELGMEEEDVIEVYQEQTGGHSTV
Sequence of Caspase-7 (P55210 24-198 limits assumed): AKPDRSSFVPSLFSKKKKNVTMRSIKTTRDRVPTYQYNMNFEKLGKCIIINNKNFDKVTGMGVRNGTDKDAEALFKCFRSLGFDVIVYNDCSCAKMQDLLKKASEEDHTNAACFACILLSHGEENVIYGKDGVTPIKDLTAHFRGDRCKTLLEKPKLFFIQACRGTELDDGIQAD
Sequence of Caspase-7 (P55210 207-303 limits assumed): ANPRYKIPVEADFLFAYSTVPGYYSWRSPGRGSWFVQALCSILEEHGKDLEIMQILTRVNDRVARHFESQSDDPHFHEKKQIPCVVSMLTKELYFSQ
Sequence of Mu-type opioid receptor (P35372 whole entry): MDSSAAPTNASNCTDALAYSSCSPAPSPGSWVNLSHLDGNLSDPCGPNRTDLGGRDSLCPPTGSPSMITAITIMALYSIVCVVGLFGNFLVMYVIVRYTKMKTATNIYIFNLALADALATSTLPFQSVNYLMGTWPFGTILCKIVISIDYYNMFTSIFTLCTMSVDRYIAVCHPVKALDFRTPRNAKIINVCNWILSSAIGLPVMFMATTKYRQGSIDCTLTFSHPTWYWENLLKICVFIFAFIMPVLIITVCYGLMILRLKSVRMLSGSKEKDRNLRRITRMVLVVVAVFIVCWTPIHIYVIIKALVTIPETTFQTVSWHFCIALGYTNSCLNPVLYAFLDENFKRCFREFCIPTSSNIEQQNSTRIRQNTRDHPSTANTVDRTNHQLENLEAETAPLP
Sequence of Tyrosine-protein phosphatase non-receptor type 5 (P54829 whole entry): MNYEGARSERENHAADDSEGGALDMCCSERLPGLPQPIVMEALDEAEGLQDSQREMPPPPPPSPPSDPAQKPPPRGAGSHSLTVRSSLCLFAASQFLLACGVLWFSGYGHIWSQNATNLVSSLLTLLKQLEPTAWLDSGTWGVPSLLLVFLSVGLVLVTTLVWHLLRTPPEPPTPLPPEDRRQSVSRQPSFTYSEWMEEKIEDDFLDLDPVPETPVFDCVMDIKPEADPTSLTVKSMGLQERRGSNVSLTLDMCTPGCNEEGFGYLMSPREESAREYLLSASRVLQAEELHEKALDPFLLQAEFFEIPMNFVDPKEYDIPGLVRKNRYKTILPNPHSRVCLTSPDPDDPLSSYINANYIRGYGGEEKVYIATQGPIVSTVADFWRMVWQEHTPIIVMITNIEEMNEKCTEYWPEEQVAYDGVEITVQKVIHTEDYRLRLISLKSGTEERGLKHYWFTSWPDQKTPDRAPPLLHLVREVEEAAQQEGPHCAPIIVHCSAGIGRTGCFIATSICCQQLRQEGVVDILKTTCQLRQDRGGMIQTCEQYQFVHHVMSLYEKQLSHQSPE
Sequence of Beta-galactosidase (Q8VNN2 whole entry): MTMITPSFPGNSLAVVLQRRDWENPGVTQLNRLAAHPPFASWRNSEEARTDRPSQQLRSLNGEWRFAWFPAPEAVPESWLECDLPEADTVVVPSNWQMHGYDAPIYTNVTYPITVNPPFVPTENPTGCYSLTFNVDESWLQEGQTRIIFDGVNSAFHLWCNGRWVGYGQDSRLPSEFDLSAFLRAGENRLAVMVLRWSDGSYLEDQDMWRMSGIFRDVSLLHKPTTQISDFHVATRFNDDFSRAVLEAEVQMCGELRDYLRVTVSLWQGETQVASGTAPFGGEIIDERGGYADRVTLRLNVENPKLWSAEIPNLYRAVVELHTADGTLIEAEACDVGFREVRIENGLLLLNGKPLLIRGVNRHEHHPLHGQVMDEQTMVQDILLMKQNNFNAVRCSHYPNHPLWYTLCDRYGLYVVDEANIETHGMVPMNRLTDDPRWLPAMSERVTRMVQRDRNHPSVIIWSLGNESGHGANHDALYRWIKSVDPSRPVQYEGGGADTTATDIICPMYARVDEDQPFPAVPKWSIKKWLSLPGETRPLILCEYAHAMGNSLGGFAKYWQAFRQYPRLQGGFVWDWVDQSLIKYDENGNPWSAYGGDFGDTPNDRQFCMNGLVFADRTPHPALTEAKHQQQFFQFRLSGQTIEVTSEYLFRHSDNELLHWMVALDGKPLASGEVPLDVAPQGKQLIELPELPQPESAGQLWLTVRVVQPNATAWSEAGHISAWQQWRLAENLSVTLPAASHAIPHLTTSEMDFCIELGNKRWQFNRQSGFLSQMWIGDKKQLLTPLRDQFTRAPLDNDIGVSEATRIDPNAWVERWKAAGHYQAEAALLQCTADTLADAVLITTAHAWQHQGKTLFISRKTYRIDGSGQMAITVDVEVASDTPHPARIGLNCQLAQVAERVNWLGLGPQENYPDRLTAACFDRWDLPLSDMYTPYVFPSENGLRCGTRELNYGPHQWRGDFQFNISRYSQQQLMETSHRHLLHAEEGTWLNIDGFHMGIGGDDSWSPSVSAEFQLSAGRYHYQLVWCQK

SMILES | IC50 [1] | EC50 (Mu-type opioid receptor) | EC50 (Beta-galactosidase) | AC50 [2] | AC50 (Caspase-7) | IC50 [3] | IC50 [4] | IC50 [5] | IC50 [6] | AC50 [7]
O=[N+]([O-])c1c(Nc2ccccc2O)cc(Cl)c2nonc12 | 14.7 µM (inactive) | > 32 µM (inactive) | > 31.5 µM (inactive) | 2.19 µM (active) | – | – | – | – | – | –
O=S(=O)(O)c1cc(O)c2cc(Nc3ccccc3)ccc2c1 | – | – | – | – | 30.2 µM (active) | > 66 µM (inactive) | 4.47 µM (active) | 6.49 µM (active) | > 66 µM (inactive) | 1.8 µM (active)
